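Assay format: 96-well plates, 48-hour exposure. The concentration for full growth arrest is given as TGI.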
Tests used:
Test in all cases: NCI anticancer screen, dose series, 48 h
[1] = test system: U251 CNS
[2] = test system: KM12 colon
[3] = test system: SW-620 colon
[4] = test system: OVCAR-3 ovarian
[5] = test system: HT29 colon
[6] = test system: IGROV1 ovarian
[7] = test system: HCT-116 colon
[8] = test system: OVCAR-8 ovarian
[9] = test system: M14 melanoma
[10] = test system: LOX IMVI melanoma
[11] = test system: SR leukemia
[12] = test system: MOLT-4 leukemia
[13] = test system: A549 NSCLC
[14] = test system: ACHN renal
[15] = test system: K-562 leukemia
[16] = test system: SK-MEL-28 melanoma
[17] = test system: 786-0 renal
[18] = test system: CCRF-CEM leukemia

Work on `O=C(COC(=O)c1cccc2c(=O)c3ccccc3[nH]c12)Nc1ccccc1` yielded a TGI [1] of over 100 µM, a TGI [2] of 54.1 µM and a TGI [3] of over 100 µM. It also gave a TGI [4] of over 100 µM, a TGI [5] of over 100 µM and a TGI [6] of over 100 µM. The TGI [7] was 88.7 µM, the TGI [8] was over 100 µM and the TGI [9] was over 100 µM. It also gave a TGI [10] of 73.2 µM, a TGI [11] of 54.3 µM and a TGI [12] of 43.8 µM. It also gave a TGI [13] of over 100 µM, a TGI [14] of over 100 µM and a TGI [15] of over 100 µM. For the same molecule, the TGI [16] was over 100 µM and the TGI [17] was over 100 µM.
Molecule `CCOC(=O)c1ccc(NC(=O)SCCC(=O)O)cc1` has a TGI [1] of over 100 µM, a TGI [2] of over 100 µM and a TGI [3] of over 100 µM. For the same molecule, the TGI [4] was over 100 µM, the TGI [5] was over 100 µM and the TGI [6] was over 100 µM. For the same molecule, the TGI [7] was over 100 µM, the TGI [8] was over 100 µM and the TGI [9] was over 100 µM. The TGI [18] was over 100 µM, the TGI [10] was over 100 µM and the TGI [11] was over 100 µM. For the same molecule, the TGI [12] was over 100 µM, the TGI [13] was over 100 µM and the TGI [14] was over 100 µM. For the same molecule, the TGI [15] was over 100 µM, the TGI [16] was over 100 µM and the TGI [17] was over 100 µM.
`Clc1cc2n[se]nc2cc1Cl` gave a TGI [1] of over 100 µM, a TGI [2] of over 100 µM and a TGI [3] of over 100 µM. It also gave a TGI [5] of over 100 µM, a TGI [6] of over 100 µM and a TGI [7] of over 100 µM. The TGI [8] was over 100 µM, the TGI [9] was over 100 µM and the TGI [18] was over 100 µM. The TGI [10] was over 100 µM, the TGI [11] was over 100 µM and the TGI [12] was over 100 µM. For the same molecule, the TGI [13] was over 100 µM, the TGI [14] was over 100 µM and the TGI [15] was over 100 µM. It also gave a TGI [16] of over 100 µM and a TGI [17] of over 100 µM.
`CN1Cc2cc3c(cc2-c2ccccc21)OCO3` was tested, and the TGI [1] was over 100 µM, the TGI [2] was over 100 µM and the TGI [3] was over 100 µM. For the same molecule, the TGI [4] was over 100 µM, the TGI [5] was over 100 µM and the TGI [6] was over 100 µM. For the same molecule, the TGI [7] was over 100 µM, the TGI [8] was over 100 µM and the TGI [9] was over 100 µM. For the same molecule, the TGI [18] was over 100 µM, the TGI [10] was over 100 µM and the TGI [11] was over 100 µM. The TGI [12] was over 100 µM, the TGI [13] was over 100 µM and the TGI [14] was over 100 µM. The TGI [15] was over 100 µM, the TGI [16] was over 100 µM and the TGI [17] was over 100 µM.
Work on `NC(N)=NS(=O)(=O)c1ccc(Nc2c3ccccc3nc3c(C(=O)Nc4ccc(S(N)(=O)=O)cc4)ccc(Cl)c23)cc1` yielded a TGI [1] of over 100 µM, a TGI [2] of over 100 µM and a TGI [3] of over 100 µM. The TGI [4] was over 100 µM, the TGI [5] was over 100 µM and the TGI [6] was over 100 µM. It also gave a TGI [7] of over 100 µM, a TGI [8] of over 100 µM and a TGI [9] of over 100 µM. The TGI [10] was over 100 µM, the TGI [11] was over 100 µM and the TGI [12] was over 100 µM. It also gave a TGI [13] of over 100 µM, a TGI [14] of over 100 µM and a TGI [15] of over 100 µM. For the same molecule, the TGI [16] was over 100 µM and the TGI [17] was over 100 µM.
`CN(Cc1ccccc1)C(=NC#N)N(C)Cc1ccccc1` gave a TGI [1] of over 100 µM, a TGI [2] of over 100 µM and a TGI [3] of over 100 µM. It also gave a TGI [4] of over 100 µM, a TGI [5] of over 100 µM and a TGI [6] of over 100 µM. The TGI [7] was over 100 µM, the TGI [8] was over 100 µM and the TGI [9] was over 100 µM. It also gave a TGI [10] of over 100 µM, a TGI [13] of over 100 µM and a TGI [14] of over 100 µM. For the same molecule, the TGI [16] was over 100 µM and the TGI [17] was over 100 µM.
In the case of `Cc1nn(C)cc1P(=S)(c1ccccc1)c1ccccc1`, the TGI [1] was over 100 µM, the TGI [2] was over 100 µM and the TGI [3] was over 100 µM. The TGI [4] was over 100 µM, the TGI [5] was over 100 µM and the TGI [6] was over 100 µM. The TGI [7] was over 100 µM, the TGI [8] was over 100 µM and the TGI [9] was over 100 µM. For the same molecule, the TGI [18] was over 100 µM, the TGI [10] was over 100 µM and the TGI [11] was over 100 µM. The TGI [12] was over 100 µM, the TGI [13] was over 100 µM and the TGI [14] was over 100 µM. The TGI [15] was over 100 µM, the TGI [16] was over 100 µM and the TGI [17] was over 100 µM.
`Cc1nn(-c2nc3ccccc3s2)c2c1C(=O)c1ccccc1-2` was tested, and the TGI [1] was over 100 µM, the TGI [2] was over 100 µM and the TGI [3] was over 100 µM. It also gave a TGI [4] of over 100 µM, a TGI [5] of over 100 µM and a TGI [6] of over 100 µM. For the same molecule, the TGI [7] was over 100 µM, the TGI [9] was over 100 µM and the TGI [10] was over 100 µM. For the same molecule, the TGI [11] was over 100 µM, the TGI [13] was over 100 µM and the TGI [14] was over 100 µM. The TGI [15] was over 100 µM, the TGI [16] was over 100 µM and the TGI [17] was over 100 µM.
For `COc1ccc2[nH]cc(CCNC(=O)[C@](O)(Cc3cn(C)c4ccccc34)[C@@]3(O)OCC(O)C3O)c2c1` (some centres undefined), the TGI [1] was over 100 µM, the TGI [2] was over 100 µM and the TGI [3] was over 100 µM. For the same molecule, the TGI [4] was over 100 µM, the TGI [5] was over 100 µM and the TGI [6] was over 100 µM. The TGI [7] was over 100 µM, the TGI [8] was over 100 µM and the TGI [9] was over 100 µM. For the same molecule, the TGI [18] was over 100 µM, the TGI [10] was over 100 µM and the TGI [11] was over 100 µM. The TGI [12] was over 100 µM, the TGI [13] was over 100 µM and the TGI [14] was over 100 µM. The TGI [15] was over 100 µM, the TGI [16] was over 100 µM and the TGI [17] was over 100 µM.
With `O=[N+]([O-])c1c(C=Nc2ccccc2)oc(-c2ccc3c(c2)OCO3)c1-c1ccc2c(c1)OCO2` the TGI [1] was over 100 µM, the TGI [2] was over 100 µM and the TGI [3] was over 100 µM. For the same molecule, the TGI [4] was over 100 µM, the TGI [5] was over 100 µM and the TGI [6] was over 100 µM. The TGI [7] was over 100 µM, the TGI [8] was over 100 µM and the TGI [9] was over 100 µM. For the same molecule, the TGI [10] was over 100 µM, the TGI [11] was over 100 µM and the TGI [12] was over 100 µM. It also gave a TGI [13] of over 100 µM, a TGI [14] of over 100 µM and a TGI [15] of over 100 µM. The TGI [16] was over 100 µM and the TGI [17] was over 100 µM.

Source: PubChem BioAssay (NCI)
